Here are results for four compounds from PMC3220703, “Effects of DPP-4 Inhibitors on the Heart in a Rat Model of Uremic Cardiomyopathy” (PLoS ONE, 2011).

A short description of series [1]: Pharmacokinetics: plasma AUC(0-∞) in sham-operated and 5/6N rats (HPLC-MS/MS). The format is in vivo, rat. The following applies: day 4, mean±SEM; for AUC(0-inf): rat, plasma, po. As to the method: Sham-operated rats were divided into four control groups (N = 5–6 rats per group) in the same manner.
Chromatography for all assays was achieved on a Phenomenex Luna Phenyl-Hexyl 100A, 3 µm, 50×2 mm analytical HPLC column with gradient elution. The analytes were detected and quantified by HPLC-MS/MS using electrospray ionization in the positive ion mode.
Pharmacokinetic analysis was performed using non-compartmental methods with ToxKin V 3.5 (LogicaCMG ITS AG, Switzerland). The linear trapezoidal rule was used for AUC calculation. The terminal half-life (t(1/2)) was calculated as t(1/2) = ln2/λ(z) with the terminal elimination rate constant λ(z) as slope of the logarithmic-linear regression line lnC(t) = lnC(0 h) – λ(z) × t of two or three data points in the terminal phase. Extrapolated AUC(rest, tz-∞) was calculated according to Aronson et al, using the calculated concentration and time (t(z)) of the last measurable data point.

The test system of the next series is 5/6N rats. The series can be described thus: Markers of kidney function before and after drug administration in 5/6N rats. Format: in vivo, rat. Conditions: for effect on concentration of osteopontin: 4 days of treatment vs pre-treatment; for Osteopontin: mean±SEM. Here is the method: Creatinine concentration was measured by the Jaffe colorimetric method. Creatinine clearance was estimated as described previously.
For each parameter, the log10-transformed values were analyzed separately using an ANOVA for repeated measurements with factors for experimental group and time as fixed effects. […] These statistical analyses were carried out with the software product SAS (SAS Institute, Cary, NC USA), version 9.2.

The next series has as its system active GLP-1. Put plainly: Plasma active GLP-1 levels after linagliptin. The format is in vivo, rat. The source says: Figure 5 Active GLP-1 levels in uremic vs sham animals. […] Following the last dose, plasma was taken after the time points indicated and active GLP-1 was detected. Values are given as mean ± SEM. N = 5 sham-operated, and 8-12 rats for 5/6N.
Active (uncleaved, 7–36 amide or 7–37) GLP-1 was detected using the commercially available Multi-Array Assay System (K150JWC) from Meso Scale Discovery following the instructions of the supplier.

The next series concerns uremic rat heart. The series can be described thus: Quantitative real-time PCR of BNP and fibrosis markers in uremic rat heart. Format: in vivo. The following applies: 7 µmol/kg, 4 days; 5/6N rats; vs untreated 5/6N; in words. As to the method:
Total RNA was extracted from 50 mg snap-frozen tissue by homogenization in peqGold Trifast reagent (Peqlab). Residual genomic DNA was removed with Turbo DNAse (Applied Biosystems). The RNA concentration and purity were assayed by spectrophotometry. First-strand cDNA synthesis was performed with random hexamer primer and 1 µg RNA using High Capacity cDNA Reverse Transcription Kit (Applied Biosystems) according to the manufacturer's instruction. (For further detail see Vinon-Zellweger et al.)
Sequences from the Ensemble database and the online available Primer3 software were used to create specific, intron-spanning primers for the target genes. […] Synthesized primers were obtained from Sigma-Aldrich®.
A total of 10 ng cDNA in 5 µl was normally used as template for amplification. An additional 0.5 µl of each primer (5 pmol) and 12.5 µl of Power SYBR Green PCR Master Mix (Applied Biosystems) were added and diluted with water to a volume of 25 µl. The PCR was performed on an Mx3000P thermal cycler (Stratagene). Reaction conditions were 95°C for 10 min, 40 cycles at 95°C for 15 sec, and 60°C for 60 sec, followed by an examination of the melting curve. All samples were analyzed in triplicate. The amplification efficiency of every reaction was checked with the linear regression method. Expression of the gene of interest was divided by the housekeeping gene, glyceraldehyde-3-phosphate dehydrogenase, and expressed as fold-change compared with the corresponding sham-operated rats group.
For orientation: Quantitative PCR measures a nucleic acid by following its amplification.

For series [2] the following is noted: cited from earlier work; for main elimination route: in words.
Setting [3] is: 7 umol/kg, 5/6N rats, 7 µmol/kg oral once daily.
Where [4] appears, read: 7 umol/kg, sham-operated rats, 7 µmol/kg oral once daily.
The mark [5] stands for this setting: after (4 days + 72 h) administration, 7.0 µmol/kg.
The mark [6] stands for this setting: vs pre-treatment values, in words.
Setting [7] is: before drug administration, 7.0 µmol/kg group.

Usually AUC(0-inf) stands for total exposure, with the tail of the curve extrapolated. For the compound `Cn1c(=O)cc(N2CCC[C@@H](N)C2)n(Cc2ccccc2C#N)c1=O` [Alogliptin, alogliptin], the AUC(0-inf) in series [1] (setting [3]) came to 2.44 ± 0.167 µM·h; in series [1] (setting [4]), 1.77 ± 0.226 µM·h. For the same compound, the “effect on concentration of osteopontin” value in the series on 5/6N rats (7.0 µmol/kg, in words) is “significantly reduced”. For the same compound, the Osteopontin with 5/6N rats (setting [5]) amounted to 39.1 ± 8.8 ng/mL. Also, the “change of cystatin C following 4 days of treatment” value with 5/6N rats (setting [6]) is “significantly increased”.
On to `CC#CCn1c(N2CCC[C@@H](N)C2)nc2c1c(=O)n(Cc1nc(C)c3ccccc3n1)c(=O)n2C` [Linagliptin, linagliptin], for which the “AUC(0-∞)” value in series [1] (5/6N rats, 7 µmol/kg oral once daily) amounted to 0.7482 ± 0.07452 µM·h; in series [1] (sham-operated rats, 7 µmol/kg oral once daily), 1.252 ± 0.3788 µM·h. Moreover, the AUC(0-inf) in series [1] (0.5 umol/kg, 5/6N rats, 0.5 µmol/kg oral once daily) stood at 0.258 ± 0.0214 µM·h; in series [1] (0.5 umol/kg, sham-operated rats, 0.5 µmol/kg oral once daily) it was 0.267 ± 0.0289 µM·h; in series [1] (setting [3]) it was 1.25 ± 0.373 µM·h; in series [1] (setting [4]), 0.748 ± 0.0745 µM·h. The “effect on concentration of osteopontin” value with 5/6N rats (0.5 µmol/kg, p<0.001, in words) is recorded as “significantly reduced”; in the series on 5/6N rats (7.0 µmol/kg, in words) it was “did not reach statistical significance”. Moreover, the Osteopontin with 5/6N rats (after (4 days + 72 h) administration, 0.5 µmol/kg) was 48.1 ± 3.8 ng/mL; in the series with 5/6N rats (setting [5]) it was 49.4 ± 10.7 ng/mL; with 5/6N rats (before drug administration, 0.5 µmol/kg group), 70.9 ± 4.7 ng/mL; with 5/6N rats (setting [7]) it was 54.2 ± 10.0 ng/mL. In addition, the “change of cystatin C following 4 days of treatment” value with 5/6N rats (setting [6]) is “trend toward decreasing”. Also, the GLP-1 AUC with active GLP-1 (7 μmol/kg, 5/6N) is 201 ng·h/L; in the series on active GLP-1 (7 μmol/kg, sham), 108 ng·h/L; in the series with active GLP-1 (5/6N rats, linagliptin 7 µmol/kg daily for 4 days), 201.0 ng·h/L; in the series on active GLP-1 (sham rats, linagliptin 7 µmol/kg daily for 4 days) it was 108.6 ng·h/L. For the same compound, the “increase in GLP-1 in 5/6N rats compared with sham-treated rats” value with active GLP-1 (linagliptin 7 µmol/kg, p = 0.01) was determined as 2 fold. The “mRNA expression of BNP in uremic rat heart” value in the series with uremic rat heart is on record as “significantly reduced”. In addition, the “mRNA expression of Col1α1 in uremic rat heart” value with uremic rat heart is listed as “significantly inhibited”. The “mRNA expression of Col3α1 in uremic rat heart” value with uremic rat heart is on record as “significantly inhibited”. Moreover, the “mRNA expression of TGF-β1 in uremic rat heart” value in the series with uremic rat heart is “significantly inhibited”. Further, in the series on uremic rat heart, the “mRNA expression of TIMP-1 in uremic rat heart” value was “significantly inhibited”. The “eliminated via the urine” value in series [2] (oral) is reported as 1–5%. Moreover, the “elimination via the bile, share of the orally administered dose” value in series [2] (oral) is listed as “approximately 85%”.
On to `N[C@@H](CC(=O)N1CCn2c(nnc2C(F)(F)F)C1)Cc1cc(F)c(F)cc1F` [Sitagliptin, sitagliptin], for which the AUC(0-inf) came out at 6.24 ± 0.423 µM·h in series [1] (setting [3]) and 3.69 ± 0.103 µM·h in series [1] (setting [4]). In the series on 5/6N rats (7.0 µmol/kg, in words), the “effect on concentration of osteopontin” value was “significantly reduced”. The Osteopontin is 33.4 ± 2.4 ng/mL in the series with 5/6N rats (setting [5]) and 48.5 ± 4.4 ng/mL in the series with 5/6N rats (setting [7]). Besides, the “change of cystatin C following 4 days of treatment” value in the series on 5/6N rats (setting [6]) was “unchanged”. In the series with 5/6N rats (setting [6]), the “change of β2-microglobulin concentration following 4 days of treatment” value is “increasing the concentration of β2-microglobulin”. Further, the main elimination route entry in series [2] was “via the kidney”.
Turning to `N#C[C@@H]1CCCN1C(=O)CNC12CC3CC(CC(O)(C3)C1)C2` [vildagliptin], the main elimination route entry in series [2] is recorded as “via the kidney”.
